Experimental data reported in US11344601B2, “Tumor microenvironment-related target TAK1 and application thereof in inhibition of tumor” (Shanghai Institutes for Biological Sciences, Chinese …, priority 2017, dated 2022).

Experiments:
[1] = system: BCa cell line MDA-MB-231/stromal cell line HBF1203 xenograft tumors; assay: BCa xenograft (MDA-MB-231/HBF1203) preclinical chemotherapy, terminal tumor volume; format: in vivo, mice; conditions: chemotherapy alone (group 6 vs group 5), MDA-MB-231/HBF1203 tumors
Protocol: (§1) FIG. 84. Statistical comparative analysis of terminal tumor volumes in BCa tumors transplanted mice (BCa cell line MDA-MB-231/stromal cell line […]1 for administration alone or combined with bleomycin for chemotherapy). […] All experimental mouse experiments were carried out in strict accordance with the relevant regulations of the Institutional animal care and use committee (IACUC) of the shanghai Institute of Life Sciences of the Chinese Academy of Sciences. ICR-SCID mice at an age of about 6 weeks (about 25 g in body weight) were used in this patent-related animal experiment. Stromal cells PSC27 and epithelial cells were mixed at a ratio of 1:4, with each implant containing 1.25×10^6 cells for tissue recombination. The transplant tumor was implanted into mice subcutaneously, and the animals were euthanized at the end of Week 8 after transplantation. The tumor volume was calculated according to the following formula: […] Similarly, lung and breast cancer xenograft tumors were formed by tissue recombination with A549 (non-small cell lung cancer cell line) and W138 (lung fibroblast line), MDA-MB-231 (triple negative breast cancer cell line) and HBF1203 (breast fibroblast line), respectively. In the preclinical chemotherapy trial, mice subcutaneously transplanted with tumors were fed standard experimental diet. […]

[2] = system: NSCLC cell line A549/stromal cell line W138 xenograft tumors; assay: NSCLC xenograft (A549/W138) preclinical chemotherapy, terminal tumor volume; format: in vivo, mice; conditions: chemotherapy alone (group 6 vs group 5)
Protocol: as §1, with “83.” for “84.”, “NSCLC” for “BCa”, “(NSCLC” for “(BCa”, “A549/stromal” for “MDA-MB-231/stromal”, “in combination” for “combined”, “bleomycin-based” for “bleomycin for”

ATM = target: T1, ATM (Homo sapiens, UniProt Q13315); assay: p-ATM antibody-mediated IP of bleomycin-treated PSC27 cells (ATM-TRAF6 interaction); format: cell-based; conditions: bleomycin-treated stromal cells
T1 construct: endogenous in cells; host or cells: PSC27 human prostate stromal cells
T1 sequence (Q13315 whole entry): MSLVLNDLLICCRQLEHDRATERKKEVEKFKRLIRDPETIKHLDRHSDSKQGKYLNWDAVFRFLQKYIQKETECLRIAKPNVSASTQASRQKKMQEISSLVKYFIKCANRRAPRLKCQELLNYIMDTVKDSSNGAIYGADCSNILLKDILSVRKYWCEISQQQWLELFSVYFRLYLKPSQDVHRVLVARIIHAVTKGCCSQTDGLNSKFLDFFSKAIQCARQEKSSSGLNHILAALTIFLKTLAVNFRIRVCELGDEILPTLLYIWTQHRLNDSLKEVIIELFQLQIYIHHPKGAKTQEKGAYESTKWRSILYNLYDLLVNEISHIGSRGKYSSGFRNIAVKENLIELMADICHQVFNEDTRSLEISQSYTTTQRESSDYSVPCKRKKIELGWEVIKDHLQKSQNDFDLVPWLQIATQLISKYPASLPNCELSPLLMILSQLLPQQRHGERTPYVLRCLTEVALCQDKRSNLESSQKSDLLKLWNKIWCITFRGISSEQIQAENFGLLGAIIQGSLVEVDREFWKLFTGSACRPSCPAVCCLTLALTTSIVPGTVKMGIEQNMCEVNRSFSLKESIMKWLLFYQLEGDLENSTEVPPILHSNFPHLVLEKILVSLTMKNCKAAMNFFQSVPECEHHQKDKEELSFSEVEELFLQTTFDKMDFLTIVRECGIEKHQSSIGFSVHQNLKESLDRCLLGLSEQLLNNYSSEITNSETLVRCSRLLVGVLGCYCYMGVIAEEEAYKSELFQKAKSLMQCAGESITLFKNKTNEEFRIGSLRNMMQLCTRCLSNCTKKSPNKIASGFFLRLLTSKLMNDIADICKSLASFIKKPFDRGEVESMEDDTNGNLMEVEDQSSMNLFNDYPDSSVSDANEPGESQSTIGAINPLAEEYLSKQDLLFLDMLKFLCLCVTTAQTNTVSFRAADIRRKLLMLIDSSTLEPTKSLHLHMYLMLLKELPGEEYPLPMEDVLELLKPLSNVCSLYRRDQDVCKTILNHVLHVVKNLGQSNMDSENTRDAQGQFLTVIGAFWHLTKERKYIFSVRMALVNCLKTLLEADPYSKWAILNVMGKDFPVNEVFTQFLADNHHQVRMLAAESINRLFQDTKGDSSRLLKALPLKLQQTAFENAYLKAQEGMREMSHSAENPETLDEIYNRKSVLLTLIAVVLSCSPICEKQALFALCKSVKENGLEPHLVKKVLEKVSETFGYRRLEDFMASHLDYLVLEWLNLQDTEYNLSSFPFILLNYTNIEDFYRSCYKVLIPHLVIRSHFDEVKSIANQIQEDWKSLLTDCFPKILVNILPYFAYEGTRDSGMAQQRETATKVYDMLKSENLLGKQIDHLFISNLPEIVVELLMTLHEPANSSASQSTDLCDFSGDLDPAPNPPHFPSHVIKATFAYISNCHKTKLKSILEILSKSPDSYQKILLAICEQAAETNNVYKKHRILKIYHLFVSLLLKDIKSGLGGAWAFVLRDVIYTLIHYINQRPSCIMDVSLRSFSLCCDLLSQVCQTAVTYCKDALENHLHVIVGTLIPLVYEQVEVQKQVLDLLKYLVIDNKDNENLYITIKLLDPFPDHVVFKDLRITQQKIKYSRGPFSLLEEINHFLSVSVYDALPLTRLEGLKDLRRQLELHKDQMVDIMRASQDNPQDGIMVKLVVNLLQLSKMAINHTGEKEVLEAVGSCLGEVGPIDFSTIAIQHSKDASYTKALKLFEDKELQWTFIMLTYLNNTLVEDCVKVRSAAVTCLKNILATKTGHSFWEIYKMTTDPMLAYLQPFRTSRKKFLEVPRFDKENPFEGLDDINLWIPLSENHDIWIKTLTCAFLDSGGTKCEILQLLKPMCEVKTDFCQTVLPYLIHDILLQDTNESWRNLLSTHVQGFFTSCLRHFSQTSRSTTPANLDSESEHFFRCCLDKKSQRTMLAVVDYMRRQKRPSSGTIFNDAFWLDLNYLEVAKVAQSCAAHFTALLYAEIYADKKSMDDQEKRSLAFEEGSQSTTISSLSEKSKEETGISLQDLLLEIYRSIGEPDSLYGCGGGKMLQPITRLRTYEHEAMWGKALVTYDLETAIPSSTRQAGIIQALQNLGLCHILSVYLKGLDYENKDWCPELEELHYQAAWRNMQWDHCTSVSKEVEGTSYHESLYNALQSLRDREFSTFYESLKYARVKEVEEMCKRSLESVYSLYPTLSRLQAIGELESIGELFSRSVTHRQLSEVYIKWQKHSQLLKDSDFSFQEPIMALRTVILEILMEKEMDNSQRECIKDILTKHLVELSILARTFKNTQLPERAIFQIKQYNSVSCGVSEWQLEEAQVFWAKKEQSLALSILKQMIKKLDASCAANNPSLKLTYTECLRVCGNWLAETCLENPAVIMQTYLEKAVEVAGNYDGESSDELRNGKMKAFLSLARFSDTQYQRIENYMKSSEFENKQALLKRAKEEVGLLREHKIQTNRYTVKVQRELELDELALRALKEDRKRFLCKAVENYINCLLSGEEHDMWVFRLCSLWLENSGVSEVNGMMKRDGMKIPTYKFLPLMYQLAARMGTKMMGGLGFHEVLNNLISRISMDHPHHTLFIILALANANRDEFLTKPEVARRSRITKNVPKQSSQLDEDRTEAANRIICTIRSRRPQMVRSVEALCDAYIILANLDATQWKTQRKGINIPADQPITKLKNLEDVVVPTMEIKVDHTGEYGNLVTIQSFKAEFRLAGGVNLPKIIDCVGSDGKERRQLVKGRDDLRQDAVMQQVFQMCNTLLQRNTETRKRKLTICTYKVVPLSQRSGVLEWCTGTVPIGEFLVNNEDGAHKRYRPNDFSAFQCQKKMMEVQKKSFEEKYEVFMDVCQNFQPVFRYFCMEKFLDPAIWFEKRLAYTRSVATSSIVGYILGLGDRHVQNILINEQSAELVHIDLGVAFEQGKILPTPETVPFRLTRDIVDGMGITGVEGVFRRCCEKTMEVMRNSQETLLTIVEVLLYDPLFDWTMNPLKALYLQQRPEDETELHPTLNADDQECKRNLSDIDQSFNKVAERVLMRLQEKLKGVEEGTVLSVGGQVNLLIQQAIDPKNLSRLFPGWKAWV
Protocol: Phosphorylated ATM (p-ATM) antibody-mediated IP analysis. The expression levels of TRAF6, p-ATM and ATM in IP precipitates were detected by Western blot. TRAF6, a loading control. PSC27 was treated with bleomycin (50 ug/ml) and then with the ATM small molecule inhibitor KU55933 (KU, 10 μM).

Compound | decrease in terminal tumor volume [1] | decrease in terminal tumor volume [2] | interaction between activated ATM and TRAF6 (ATM)
bleomycin | 32% | 38% | –
O=c1cc(-c2cccc3c2Sc2ccccc2S3)oc(N2CCOCC2)c1 [KU55933] | – | – | abolished
